Broadly, the pIC50 is the IC50 on a negative log10 scale, so that one unit is a factor of ten. Read a high pIC50 as a low IC50. One may read the inhibition as the relative decrease from the control value, in per cent.

pIC50: −log10 of the molar value.

This passage reports IC50 and inhibition results from patent US11104680B2, “1,5-dihydro-4H-pyrazolo[3,4-d]pyrimidin-4-ones and 1,5-dihydro-4H-pyrazolo[4,3-c]pyridin-4-ones as PDE1 inhibitors” (H. Lundbeck A/S, priority 2016, dated 2021).

Holding throughout (type): biochemical
One test addresses PDE1A (Homo sapiens (Human), UniProt P54750). The test can be described thus: PDE1 inhibition assay (PDE1A), SPA. The following applies: 15 nM tritium labelled cAMP.
A further test concerns the target PDE1B (Homo sapiens (Human), UniProt Q01064). The test can be described thus: PDE1 inhibition assay (PDE1B), SPA. The following applies: 15 nM tritium labelled cAMP.
The target of a further test is PDE1C (Homo sapiens (Human), UniProt Q14123). The test can be described thus: PDE1 inhibition assay (PDE1C), SPA. The following applies: 15 nM tritium labelled cAMP.
For another test, the target named is PDE9 (Homo sapiens (Human), UniProt O76083). The test is described as follows: PDE9 inhibition assay, SPA.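 Further: enzyme reaction incubated for 1 h, then stopped by adding yttrium silicate scintillation proximity beads for the read-out.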 Particulars: 10 microM compound; 10 nM 3H-cAMP.
Chain of PDE9 (O76083 whole entry): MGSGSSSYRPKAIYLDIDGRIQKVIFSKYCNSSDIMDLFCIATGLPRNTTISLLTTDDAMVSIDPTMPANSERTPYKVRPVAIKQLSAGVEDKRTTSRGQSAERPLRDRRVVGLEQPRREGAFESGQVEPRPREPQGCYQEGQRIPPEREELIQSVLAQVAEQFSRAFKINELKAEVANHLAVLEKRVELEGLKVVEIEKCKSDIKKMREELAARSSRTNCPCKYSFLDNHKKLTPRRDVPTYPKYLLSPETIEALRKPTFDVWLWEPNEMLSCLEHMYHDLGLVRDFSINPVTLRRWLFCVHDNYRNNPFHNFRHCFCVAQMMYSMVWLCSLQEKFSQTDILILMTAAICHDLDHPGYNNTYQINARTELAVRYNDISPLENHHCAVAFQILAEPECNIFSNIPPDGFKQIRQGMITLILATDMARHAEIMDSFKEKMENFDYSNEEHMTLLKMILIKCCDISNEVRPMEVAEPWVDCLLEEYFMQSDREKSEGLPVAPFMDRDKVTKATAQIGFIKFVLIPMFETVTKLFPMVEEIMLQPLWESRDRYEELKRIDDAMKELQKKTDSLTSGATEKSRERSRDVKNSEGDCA

Chain of PDE1C (Q14123 whole entry): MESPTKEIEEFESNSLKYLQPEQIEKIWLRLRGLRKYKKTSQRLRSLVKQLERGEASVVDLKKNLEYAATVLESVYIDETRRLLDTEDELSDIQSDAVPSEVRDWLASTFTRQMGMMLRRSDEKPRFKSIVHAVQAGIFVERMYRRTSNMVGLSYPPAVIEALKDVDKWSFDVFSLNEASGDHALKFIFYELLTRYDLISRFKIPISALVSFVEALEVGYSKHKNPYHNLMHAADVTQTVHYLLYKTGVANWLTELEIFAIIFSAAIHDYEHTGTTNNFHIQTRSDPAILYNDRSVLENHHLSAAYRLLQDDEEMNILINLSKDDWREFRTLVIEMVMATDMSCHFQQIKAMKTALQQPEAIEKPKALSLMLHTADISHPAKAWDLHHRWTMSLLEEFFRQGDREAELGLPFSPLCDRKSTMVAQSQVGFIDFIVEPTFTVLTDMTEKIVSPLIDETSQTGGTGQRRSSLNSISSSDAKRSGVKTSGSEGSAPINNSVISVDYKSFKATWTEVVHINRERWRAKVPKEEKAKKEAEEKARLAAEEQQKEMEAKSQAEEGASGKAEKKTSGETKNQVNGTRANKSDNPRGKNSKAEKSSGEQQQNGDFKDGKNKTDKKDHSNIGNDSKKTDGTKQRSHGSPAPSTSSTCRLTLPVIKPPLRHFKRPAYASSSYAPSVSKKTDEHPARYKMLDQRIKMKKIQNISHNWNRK
Chain of PDE1B (Q01064 whole entry): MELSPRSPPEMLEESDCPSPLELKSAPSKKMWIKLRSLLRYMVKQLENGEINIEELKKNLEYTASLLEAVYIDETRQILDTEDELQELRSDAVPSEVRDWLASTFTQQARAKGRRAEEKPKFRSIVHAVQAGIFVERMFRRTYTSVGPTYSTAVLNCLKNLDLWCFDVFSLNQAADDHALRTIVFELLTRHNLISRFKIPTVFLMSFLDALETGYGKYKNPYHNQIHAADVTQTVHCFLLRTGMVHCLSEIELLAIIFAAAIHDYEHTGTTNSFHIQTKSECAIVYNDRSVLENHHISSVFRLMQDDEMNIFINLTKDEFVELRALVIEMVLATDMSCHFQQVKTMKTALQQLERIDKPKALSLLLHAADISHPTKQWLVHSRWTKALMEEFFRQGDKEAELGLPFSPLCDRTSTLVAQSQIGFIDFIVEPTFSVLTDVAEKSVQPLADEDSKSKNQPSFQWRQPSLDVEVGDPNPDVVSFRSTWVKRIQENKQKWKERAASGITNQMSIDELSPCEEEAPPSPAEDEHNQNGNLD
Chain of PDE1A (P54750 whole entry): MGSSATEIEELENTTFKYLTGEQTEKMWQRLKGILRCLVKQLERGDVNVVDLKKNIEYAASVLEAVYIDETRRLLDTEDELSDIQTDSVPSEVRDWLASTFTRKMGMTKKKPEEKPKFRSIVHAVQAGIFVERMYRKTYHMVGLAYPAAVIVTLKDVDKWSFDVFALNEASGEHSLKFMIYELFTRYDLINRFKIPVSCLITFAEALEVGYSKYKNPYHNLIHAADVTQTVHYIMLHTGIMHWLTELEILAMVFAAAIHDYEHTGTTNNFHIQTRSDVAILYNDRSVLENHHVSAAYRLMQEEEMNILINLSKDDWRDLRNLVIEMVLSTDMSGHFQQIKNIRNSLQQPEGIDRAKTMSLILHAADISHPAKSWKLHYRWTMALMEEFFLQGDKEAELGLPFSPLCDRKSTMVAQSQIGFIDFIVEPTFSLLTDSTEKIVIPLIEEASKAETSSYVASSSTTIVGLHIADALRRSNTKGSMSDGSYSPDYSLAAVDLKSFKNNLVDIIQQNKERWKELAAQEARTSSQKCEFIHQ
Procedure for PDE1A: (§1) Reactions were initiated by addition of the cyclic nucleotide substrate, and reactions were allowed to proceed for 1 hr at room temperature before being terminated through mixing with 20 μL (0.2 mg) yttrium silicate SPA beads (PerkinElmer). The beads were allowed to settle for 1 hr in the dark before the plates were counted in a Wallac 1450 Microbeta counter.
Procedure for PDE1B: Reactions were initiated by addition of the cyclic nucleotide substrate, and reactions were allowed to proceed for 1 hr at room temperature before being terminated through mixing with 20 μL (0.2 mg) yttrium silicate SPA beads (PerkinElmer).
Procedure for PDE1C: as §1
Procedure for PDE9: Reactions are initiated by addition of the cyclic nucleotide substrate, and reactions are allowed to proceed for one hr at room temperature before being terminated through mixing with 15 μL 8 mg/mL yttrium silicate SPA beads (Amersham).
Following 1 hr incubation the reactions were terminated by addition of 15 uL 8 mg/mL yttrium silicate SPA beads (Amersham).

In the case of `COc1ccc(Cn2c(C)cc3c(cnn3[C@@H]3CCO[C@H]3C)c2=O)cc1` (relative stereo) [Example 26, 5-[(4-methoxyphenyl)methyl]-6-methyl-1-[(trans)-2-methyltetrahydrofuran-3-yl]pyrazolo[4,3-c]pyridin-4-one], the pIC50 at PDE1A is 6.69; against PDE1B it was 7.08; at PDE1C, 6.46. Moreover, the inhibition at 10 µM at PDE9 is 8%.
Take `COc1ccc(Cn2c(C)cc3c(cnn3[C@@H]3CCO[C@@H]3C)c2=O)cc1` (relative stereo) [Example 27, 5-[(4-methoxyphenyl)methyl]-6-methyl-1-[(cis)-2-methyltetrahydrofuran-3-yl]pyrazolo[4,3-c]pyridin-4-one]: the pIC50 against PDE1A was 5.89; against PDE1B it was 6.75; on PDE1C, 6.16. Further, on PDE9, the inhibition at 10 µM was 13%.
The corresponding values for `O=c1c2cnn(C3CCOCC3)c2nc(Cc2ccccc2)n1CC1CCCCC1` [Example 1, 6-benzyl-5-(cyclohexylmethyl)-1-(tetrahydro-2H-pyran-4-yl)-1,5-dihydro-4H-pyrazolo[3,4-d]pyrimidin-4-one] are 6.46, 6.49, 6.92 and 51%.
Take `COc1ccc(Cn2c(CC3COC3)nc3c(cnn3C3CCOCC3)c2=O)cc1` [Example 9, 5-[(4-methoxyphenyl)methyl]-6-(oxetan-3-ylmethyl)-1-tetrahydropyran-4-yl-pyrazolo[3,4-d]pyrimidin-4-one]: the pIC50 against PDE1B is 7.24; against PDE1C, 6.78. For the same compound, the inhibition at 10 µM against PDE9 was 12%.
With `Cc1cc2c(cnn2C2CCOCC2)c(=O)n1Cc1cccc(F)c1` [Example 10, 5-[(3-fluorophenyl)methyl]-6-methyl-1-tetrahydropyran-4-yl-pyrazolo[4,3-c]pyridin-4-one], the pIC50 against PDE1A is 5.97; at PDE1C, 6.83. Moreover, at PDE9, the inhibition at 10 µM was determined as 3%.
As for `Cc1cc2c(cnn2C2CCOCC2)c(=O)n1Cc1ccccc1F` [Example 11, 5-[(2-fluorophenyl)methyl]-6-methyl-1-tetrahydropyran-4-yl-pyrazolo[4,3-c]pyridin-4-one], the negative-log IC50 (pIC50) at PDE1A was 6.23; against PDE1C, 7.21. For the same compound, the inhibition at 10 µM at PDE9 was found to be 12%.
The like results for `Cc1cc2c(cnn2C2CCOCC2)c(=O)n1Cc1ccc(Cl)cc1` [Example 12, 5-[(4-chlorophenyl)methyl]-6-methyl-1-tetrahydropyran-4-yl-pyrazolo[4,3-c]pyridin-4-one] were, in that order, 6.90, 6.38 and 16%.
For the compound `Cc1cc2c(cnn2C2CCOCC2)c(=O)n1Cc1ccccc1` [Example 13, 5-benzyl-6-methyl-1-tetrahydropyran-4-yl-pyrazolo[4,3-c]pyridin-4-one], the pIC50 on PDE1A is 5.90; at PDE1C it was 6.87. Moreover, the inhibition at 10 µM against PDE9 was -18%.
The like results for `COc1ccc(Cn2c(C)cc3c(cnn3C3CCOCC3)c2=O)cn1` [Example 18, 5-[(6-methoxy-3-pyridyl)methyl]-6-methyl-1-tetrahydropyran-4-yl-pyrazolo[4,3-c]pyridin-4-one] were, in that order, 6.13, 5.93 and 9%.
On to `COc1ccc(Cn2c(C)cc3c(cnn3C3CCOCC3)c2=O)cc1` [Example 19, 5-(4-methoxybenzyl)-6-methyl-1-(tetrahydro-2H-pyran-4-yl)-1,5-dihydro-4H-pyrazolo[4,3-c]pyridin-4-one], for which the pIC50 against PDE1A was 6.74; at PDE1C it was 6.77. At PDE9, the inhibition at 10 µM is 19%.
`COc1ccc(Cn2c(C)cc3c(cnn3C3CCCOC3)c2=O)cc1` (stereo not drawn) [Example 25, 5-[(4-methoxyphenyl)methyl]-6-methyl-1-tetrahydropyran-3-yl-pyrazolo[4,3-c]pyridin-4-one]: the pIC50 is 6.08 against PDE1A and 6.19 against PDE1C. For the same compound, the inhibition at 10 µM against PDE9 amounted to 8%.
